Test results taken from the CheMixHub drug solubility set.

Assay: xn = mol fraction of the nth substance listed, in the solute-free solvent

Cc1ccc(Nc2nccc(N(C)c3ccc4c(C)n(C)nc4c3)n2)cc1S(N)(=O)=O + CC#N + CC(C)O
solubility (g/100 g solution)
Details	288.15 K	293.15 K	298.15 K	303.15 K	308.15 K	313.15 K	318.15 K	323.15 K	328.15 K
x2 = 0.2679	0.00834	0.0123	0.0162	0.0208	0.0257	0.0311	0.0374	0.0456	0.0557
x2 = 0.4939	0.0116	0.0198	0.0273	0.0362	0.0457	0.0552	0.0651	0.0758	0.0876
x2 = 0.6871	0.0161	0.0249	0.0344	0.0445	0.0553	0.0662	0.079	0.0943	0.113
x2 = 0.8541	0.0119	0.0172	0.0243	0.0311	0.0393	0.0478	0.0563	0.0666	0.0803

Cc1ccc(Nc2nccc(N(C)c3ccc4c(C)n(C)nc4c3)n2)cc1S(N)(=O)=O + CCO + CC#N
solubility (g/100 g solution)
Details	288.15 K	293.15 K	298.15 K	303.15 K	308.15 K	313.15 K	318.15 K	323.15 K	328.15 K
x2 = 0.1822	0.0124	0.029	0.0444	0.063	0.0838	0.104	0.125	0.149	0.177
x2 = 0.3727	0.026	0.0514	0.0739	0.101	0.129	0.157	0.187	0.22	0.258
x2 = 0.572	0.0528	0.0704	0.0887	0.11	0.133	0.16	0.189	0.221	0.256
x2 = 0.7809	0.0195	0.035	0.0514	0.0677	0.086	0.104	0.123	0.145	0.17

Clc1ncnc2[nH]ccc12 + C1CCOC1 + CCOC(C)=O
solubility (g/100 g solution)
Details	278.15 K	283.15 K	288.15 K	293.15 K	298.15 K	303.15 K	308.15 K	313.15 K	318.15 K	323.15 K
x2 = 0.1937	2.62	2.95	3.32	3.75	4.21	4.72	5.25	5.79	6.4	7.07
x2 = 0.3753	3.46	3.9	4.38	4.87	5.45	6.03	6.66	7.34	8.06	8.83
x2 = 0.5458	4.65	5.2	5.79	6.4	7.13	7.83	8.57	9.41	10.2	11.2
x2 = 0.6272	5.34	5.93	6.58	7.23	8	8.79	9.64	10.5	11.4	12.4
x2 = 0.7061	5.97	6.66	7.32	8.1	8.9	9.77	10.6	11.5	12.6	13.5
x2 = 0.8573	7.35	8.08	8.82	9.69	10.6	11.6	12.5	13.5	14.6	15.7

Cc1nc(CCl)nc2ccccc12 + CCOC(C)=O + C1CCCCC1
solubility (g/100 g solution)
Details	x2 = 0.163	x2 = 0.321	x2 = 0.475	x2 = 0.624	x2 = 0.768	x2 = 0.909
281.15 K	0.0748	0.106	0.134	0.162	0.187	0.212
286.15 K	0.102	0.139	0.176	0.21	0.244	0.276
291.15 K	0.134	0.18	0.225	0.27	0.312	0.352
296.15 K	0.172	0.229	0.285	0.339	0.392	0.439
301.15 K	0.22	0.29	0.357	0.42	0.481	0.539
306.15 K	0.276	0.357	0.437	0.511	0.582	0.65
311.15 K	0.342	0.435	0.526	0.61	0.692	0.772
316.15 K	0.418	0.523	0.623	0.718	0.81	0.898
321.15 K	0.504	0.619	0.727	0.833	0.934	1.03
326.15 K	0.599	0.721	0.84	0.951	1.06	1.16
331.15 K	0.704	0.833	0.955	1.07	1.19	1.3
